Consider 4 compounds from patent publication US20050261319A1, “Novel 2-amino-4-quinazolinones and 2-amino-4-oxoquinazolones as LXR nuclear receptor binding compounds with partial agonistic properties” (priority 2002, published 2005).

The subject of experiment [1] is THP-1 macrophages. Nature of the experiment: Cholesterol efflux from differentiated THP-1 macrophages. In kind it is cell-based. The conditions noted are these: ApoA1, 10 uM, 24 h. As to the method: Methods: Cultures of the monocyte-macrophage cell line and the hepatocytes HepG2 are obtained from the American Type tissue Culture Collection, Rockville, Md. and were grown in RPMI 1640 medium supplemented with 10% fetal bovine serum, 10 mM HEPES, 2 mM pyruvate, 50 uM (3-Mercaptoethanol (THP-1) and Minimum essential medium (Eagle) with 2 mM L-glutamine and Earle's BSS supplemented with 10% fetal bovine serum, 2 mM glutamin, 0.1 mM non-essential amino acids, 1 mM sodium pyruvate (HepG2), respectively, at 37° C. in 5% CO2. THP-1 cells are differentiated into macrophages by addition of 100 nM Phorbol 12-Myristate 13-Acetate (PMA; Sigma P8139) and PMA included in the medium of all subsequent experiments to maintain differentiation. For cholesterol efflux measurements and triglyceride analysis cells are seeded in 6 well plates at 1.8×10^6 cells (THP-1) and 1×10^6 cells (HepG2) per well, respectively. CHOLESTEROL EFFLUX THP-1 cells are seeded in 6 well plates at 1×10^6 cells per well in RPMI 1640 medium containing 10% FCS and 100 nM TPA for 72 h. After washing with PBS cells are incubated 24 h with fresh in RPMI 1640 medium containing 10% FCS and 100 nM TPA. […] Medium is collected, centrifuged to remove cell debris and assayed for cholesterol using a commercial fluorometric kit (Molecular Probes A-12216). The remaining cellular proteins are lysed with 0.3 NNaOH and protein content measured with the Biorad Bradford reagent. THP-1 (1×10^6 cells per dish) cells were seeded in 6 well dishes in 3 ml modified RPMI 1640 medium (ATTC, Cat. […] After incubation for 24 hours, total cholesterol was determined from cell supernatant in each of the wells using an enzymatic assay with fluorescence read-out for the determination of cholesterol (Amplex Red Cholesterol Assay Kit (A-12213). The fluorescence readout per mg of total protein content as determined from cells that were present in the respective well are shown in FIGS. 9 or 11 as an example.

Experiment [2] relates to FAS and SREBP-1c in HepG2 cells. Nature of the experiment: mRNA content of FAS and SREBP-1c in HepG2 cells (TaqMan). The experiment is classed as cell-based. As to the method:
THP-1 (3×10^5 cells per dish) cells were seeded in […] RPMI-1640 medium (ATTC, Cat. No. 30-2001) containing 10% FCS (GIBCO) and 100 nM TPA and cultivated at 37° C. in 5% CO2 for 24 or 48 hours. HepG2 (4.5×10^5 cells per dish) were seeded in 24 well dishes in 3 ml DMEM Medium containing 10% FCS (GIBCO) and cultivated at 37° C. in 5% CO2 for 48 hours as indicated in FIG. 8B or until they are approx. 60% confluent.
The medium was then removed and replaced with medium containing 10% charcoal/stripped FCS (Hyclone) for 12 h.
LXR compounds are dissolved in DMSO, with the final solvent concentration never exceeding 0.125%. All treatments are done in triplicates and experiments repeated twice. Total RNA is extracted using the Qiagen Rneasy Mini Kit and treated with DNase (DNA free kit, Ambion). RNA is reverse transcribed with Oligo (dT) primer and real-time reverse transcription PCR (TaqMan) is performed using the ABI Prism 7900HT Sequence Detection System and reagents supplied by Applied Biosystems. mRNA steady state levels are normalised to H3 histone (H3F3A) expression levels.
The sequences of forward primers, reverse primers and TaqMan probes are as follows

`CC(C)n1c(N2C3CC(C)(C)CC2(C)C3)nc2ccc(I)cc2c1=O` (stereo not drawn) [formula (10)]: the cholesterol export result in experiment [1] is reported as “marked increase”.

On to `C=CCn1c(N2[C@@H]3CC(C)(C)C[C@@]2(C)C3)nc2cccc(F)c2c1=O` [formula (12)], for which the cholesterol export entry in experiment [1] is given as “marked increase”. For `CCCn1c(N2[C@@H]3CC(C)(C)C[C@@]2(C)C3)nc2cccc(F)c2c1=O` [formula (11)], in experiment [1], the cholesterol export result is “marked increase”.

With `C=CCn1c(N2C3CC(C)(C)CC2(C)C3)nc2ccc(I)cc2c1=O` (stereo not drawn) [formula (9)], in experiment [2], the “upregulation of FAS” value is recorded as “does not significantly upregulate” and the “upregulation of SREBP-1c” value is listed as “much reduced”. Moreover, the cholesterol export result in experiment [1] is given as “marked increase”.
